*1 amine or outer side, *2 acyl side, *3 side chain or, on linkers, in order; H or OH if unused. Where a SMILES comes first, the peptide text is derived from it. Bridges are numbered along the chain shown (N, C = ends). [ ]: non-standard residue; d: D form. The star is where a group is joined. hPhe(3-Cl-4-CF3) = N[C@@H](CCc1ccc(C(F)(F)F)c(Cl)c1)C(=O)O; NPrPhe(4-CF3) = CCCN[C@@H](Cc1ccc(C(F)(F)F)cc1)C(=O)O; X2 = CCCN([C@@H](COC1CCC1)C(=O)[*:2])[*:1]; NMeGly(cPent) = CN[C@H](C(=O)O)C1CCCC1; NMeD = CN[C@@H](CC(=O)O)C(=O)O; NMeL = CN[C@@H](CC(C)C)C(=O)O; Morpholide = C1CN(*)CCO1; NMeA = CN[C@@H](C)C(=O)O; Ac5c = NC1(C(=O)O)CCCC1; Aze = O=C(O)[C@@H]1CCN1; Ac4c = NC1(C(=O)O)CCC1; NEtG = CCNCC(=O)O; Sar = CNCC(=O)O
Key:
[1] = molecular target: GDP-bound KRAS wild-type protein (Homo sapiens, UniProt P01116); assay: Binding to KRAS by surface plasmon resonance (SPR), Single Cycle Kinetics; conditions: SPR, Single Cycle Kinetics, GDP-bound KRAS wild-type protein; read-out: KRAS KD
GDP-bound KRAS wild-type protein, sequence (P01116 whole entry): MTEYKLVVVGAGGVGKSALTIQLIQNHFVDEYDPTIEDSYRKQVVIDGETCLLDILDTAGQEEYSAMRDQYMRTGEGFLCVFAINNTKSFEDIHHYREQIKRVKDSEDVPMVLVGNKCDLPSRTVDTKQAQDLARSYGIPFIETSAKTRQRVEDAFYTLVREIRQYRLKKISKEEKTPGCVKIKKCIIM

[2] = molecular target: GDP-bound NRAS wild-type protein (Homo sapiens, UniProt P01111); assay: Binding to NRAS by surface plasmon resonance (SPR), Single Cycle Kinetics; conditions: ratio of KD for GDP-bound NRAS wild-type protein to KD for KRAS, SPR
GDP-bound NRAS wild-type protein, sequence (P01111 whole entry): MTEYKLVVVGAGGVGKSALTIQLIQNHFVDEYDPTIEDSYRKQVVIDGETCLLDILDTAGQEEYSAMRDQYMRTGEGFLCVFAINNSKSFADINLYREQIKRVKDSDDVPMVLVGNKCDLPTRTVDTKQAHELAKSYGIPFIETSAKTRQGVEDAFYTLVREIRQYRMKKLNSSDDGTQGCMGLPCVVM

[3] = molecular target: GDP-bound HRAS wild-type protein (Homo sapiens, UniProt P01112); assay: Binding to HRAS by surface plasmon resonance (SPR), Single Cycle Kinetics; conditions: ratio of KD for GDP-bound HRAS wild-type protein to KD for KRAS, SPR
GDP-bound HRAS wild-type protein, sequence (P01112 whole entry): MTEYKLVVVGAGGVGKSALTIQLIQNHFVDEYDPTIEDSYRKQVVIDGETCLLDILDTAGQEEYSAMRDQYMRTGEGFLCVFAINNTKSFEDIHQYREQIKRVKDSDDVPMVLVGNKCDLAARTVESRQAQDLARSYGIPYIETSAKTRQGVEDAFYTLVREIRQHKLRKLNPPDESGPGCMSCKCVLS

[4] = system: human lung cancer strain NCI-H441; assay: cells; conditions: NCI-H441, 96 h, read-out: NCI-H441 IC50 (nM), NCI-H441 cell proliferation, 4 days, CellTiter-Glo;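 also: cell proliferation inhibition after four days measured by CellTiter-Glo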

Row | Kd [1] [nM] | IC50 [4] [nM] | SMILES | NRAS/KRAS (KD ratio) [2] | HRAS/KRAS (KD ratio) [3]
1 | 0.11 | 2.1 | CCO[C@@H]1C[C@H]2C(=O)NC3(CC(C)(C)C3)C(=O)N(C)[C@@H](C3CCCC3)C(=O)N(C)[C@H](C(=O)N(C)CC)CC(=O)N(C)[C@@H](CC3CC3)C(=O)N[C@@H]([C@@H](C)CC)C(=O)N(C)CC(=O)N(C)[C@H]3C/C=C\CCN(C3=O)[C@@H](Cc3ccc(C(F)(F)F)cc3)C(=O)N(C)CC(=O)N[C@@H](CCc3cc(F)c(C(F)(F)F)c(F)c3)C(=O)N2C1 [PP1648] | A (a compound having 10 or more and less than 20 is denoted as A) | A (a compound having 10 or more and less than 20 is denoted as A)
2 | 0.19 | 5.7 | CCCC[C@H]1C(=O)N[C@@H]([C@@H](C)CC)C(=O)N(C)CC(=O)N(C)[C@H]2C/C=C\CCN(C2=O)[C@@H](Cc2ccc(C(F)(F)F)cc2)C(=O)N(C)CC(=O)N[C@@H](CCc2cc(F)c(C(F)(F)F)c(F)c2)C(=O)N2C[C@@H](C)C[C@H]2C(=O)NC2(CC(C)(C)C2)C(=O)N(C)[C@@H](C2CCCC2)C(=O)N(C)[C@H](C(=O)N(C)C)CC(=O)N1C [PP1661] | A (a compound having 10 or more and less than 20 is denoted as A) | A (a compound having 10 or more and less than 20 is denoted as A)
3 | 0.07 | 12.3 | CC[C@H](C)[C@@H]1NC(=O)[C@H](CC)N(C)C(=O)C[C@@H](C(=O)N(C)C)N(C)C(=O)[C@H](C2CCCC2)N(C)C(=O)C2(CC(C)(C)C2)NC(=O)[C@@H]2C[C@H](C)CN2C(=O)[C@H](CCc2ccc(C(F)(F)F)c(Cl)c2)NC(=O)CN(C)C(=O)[C@H](Cc2ccc(C)cc2)N2CC/C=C\C[C@@H](C2=O)N(C)C(=O)CN(C)C1=O [PP1844] | A (a compound having 10 or more and less than 20 is denoted as A) | B (a compound having 3 or more and less than 10 is denoted as B)
4 | 0.12 | 5 | CCC[C@H]1C(=O)N[C@@H]([C@@H](C)CC)C(=O)N(C)CC(=O)N(C)[C@H]2C/C=C\CCN(C2=O)[C@@H](Cc2ccc(C(F)(F)F)cc2)C(=O)N(C)CC(=O)N[C@@H](CCc2ccc(C(F)(F)F)c(OC)c2)C(=O)N2C[C@H](OCC)C[C@H]2C(=O)NC2(CC(C)(C)C2)C(=O)N(C)[C@@H](C2CCCC2)C(=O)N(C)[C@H](C(=O)N(C)CC)CC(=O)N1C [PP1676] | A (a compound having 10 or more and less than 20 is denoted as A) | A (a compound having 10 or more and less than 20 is denoted as A)
5 | 0.06 | 2 | CCCOC[C@H]1C(=O)N[C@@H]([C@@H](C)CC)C(=O)N(C)CC(=O)N(C)[C@H]2C/C=C\CCN(C2=O)[C@@H](Cc2ccc(C(F)(F)F)cc2)C(=O)N(C)CC(=O)N[C@@H](CCc2ccc(C(F)(F)F)c(OC)c2)C(=O)N2C[C@H](OCC)C[C@H]2C(=O)NC2(CC(C)(C)C2)C(=O)N(C)[C@@H](C2CCCC2)C(=O)N(C)[C@H](C(=O)N(C)C)CC(=O)N1C [PP1657] | A (a compound having 10 or more and less than 20 is denoted as A) | B (a compound having 3 or more and less than 10 is denoted as B)
6 | 0.1 | 6.7 | CCCN(C)C(=O)[C@@H]1CC(=O)N(C)[C@@H](CC)C(=O)N[C@@H]([C@@H](C)CC)C(=O)N(C)CC(=O)N(C)[C@H]2C/C=C\CCN(C2=O)[C@@H](Cc2ccc(C(F)(F)F)cc2)C(=O)N(C)CC(=O)N[C@@H](CCc2cc(F)c(C(F)(F)F)c(F)c2)C(=O)N2C[C@H](OCC)C[C@H]2C(=O)NC2(CC(C)(C)C2)C(=O)N(C)[C@@H](C2CCCC2)C(=O)N1C [PP1670] | A (a compound having 10 or more and less than 20 is denoted as A) | A (a compound having 10 or more and less than 20 is denoted as A)

Continued, compound first:

Row | SMILES | Kd [1] [nM] | IC50 [4] [nM] | NRAS/KRAS (KD ratio) [2] | HRAS/KRAS (KD ratio) [3]
7 | CCCN1C(=O)CN(C)C(=O)CN(C)C(=O)[C@H]([C@@H](C)CC)NC(=O)[C@H](CC(C)C)N(C)C(=O)C[C@@H](C(=O)N2CCOCC2)N(C)C(=O)[C@H](C2CCCC2)N(C)C(=O)C2(CCC2)NC(=O)[C@H](C)N(C)C(=O)[C@H](CCc2ccc(C(F)(F)F)c(Cl)c2)NC(=O)CN(C)C(=O)[C@@H]1Cc1ccc(C(F)(F)F)cc1 [PP1916] ([NMeL]I[Sar][Sar][NPrPhe(4-CF3)][Sar][hPhe(3-Cl-4-CF3)][NMeA][Ac4c][NMeGly(cPent)][NMeD]-Morpholide; lactam N-11) | 0.49 | 16.8 | B (a compound having 3 or more and less than 10 is denoted as B) | C (A compound having a KD ratio of 0.1 or more and less than 3 is denoted as C)
8 | CCCN1C(=O)[C@@H]2CCN2C(=O)[C@H](C)N(C)C(=O)[C@H]([C@@H](C)CC)NC(=O)[C@H](CC(C)C)N(C)C(=O)C[C@@H](C(=O)N2CCOCC2)N(C)C(=O)[C@H](C2CCCC2)N(C)C(=O)C2(CCC2)NC(=O)[C@@H]2CCCN2C(=O)[C@H](CCc2ccc(C(F)(F)F)c(Cl)c2)NC(=O)CN(C)C(=O)[C@@H]1COC1CCC1 [PP1818] ([NMeL]I[NMeA][Aze][X2][Sar][hPhe(3-Cl-4-CF3)]P[Ac4c][NMeGly(cPent)][NMeD]-Morpholide; lactam N-11) | 0.9 | 74.8 | C (A compound having a KD ratio of 0.1 or more and less than 3 is denoted as C) | B (a compound having 3 or more and less than 10 is denoted as B)
9 | CCO[C@@H]1C[C@H]2C(=O)NC3(CC(C)(C)C3)C(=O)N(C)[C@@H](C3CCCC3)C(=O)N(C)[C@H](CC)CC(=O)N(C)[C@@H](CC3CC3)C(=O)N[C@@H]([C@@H](C)CC)C(=O)N(C)CC(=O)N(C)[C@H]3C/C=C\CCN(C3=O)[C@@H](Cc3ccc(C(F)(F)F)cc3)C(=O)N(C)CC(=O)N[C@@H](CCc3cc(F)c(C(F)(F)F)c(F)c3)C(=O)N2C1 [PP1629] | 0.36 | 20.7 | B (a compound having 3 or more and less than 10 is denoted as B) | B (a compound having 3 or more and less than 10 is denoted as B)
10 | CCCN1C(=O)CN(CC)C(=O)CNC(=O)[C@H]([C@@H](C)CC)NC(=O)[C@H](CC(C)C)N(C)C(=O)C[C@@H](C(=O)N2CCOCC2)N(C)C(=O)[C@H](C2CCCC2)N(C)C(=O)C2(CCCC2)NC(=O)[C@@H]2CCCN2C(=O)[C@H](CCc2ccc(C(F)(F)F)c(Cl)c2)NC(=O)CN(C)C(=O)[C@@H]1Cc1ccc(C(F)(F)F)cc1 [PP1968] ([NMeL]IG[NEtG][NPrPhe(4-CF3)][Sar][hPhe(3-Cl-4-CF3)]P[Ac5c][NMeGly(cPent)][NMeD]-Morpholide; lactam N-11) | 0.76 | 13.5 | C (A compound having a KD ratio of 0.1 or more and less than 3 is denoted as C) | C (A compound having a KD ratio of 0.1 or more and less than 3 is denoted as C)
11 | CCCN(C)C(=O)[C@@H]1CC(=O)N(C)[C@@H](CC)C(=O)N[C@@H]([C@@H](C)CC)C(=O)N(C)CC(=O)N(C)[C@H]2C/C=C\CCN(C2=O)[C@@H](Cc2ccc(C(F)(F)F)cc2)C(=O)N(C)CC(=O)N[C@@H](CCc2cc(F)c(C(F)(F)F)c(F)c2)C(=O)N2C[C@H](OCC)C[C@H]2C(=O)NC2(CC(F)(F)C2)C(=O)N(C)[C@@H](C2CCCC2)C(=O)N1C [PP1732] | 0.099 | 6.4 | AA (a compound having 20 or more is denoted as AA) | A (a compound having 10 or more and less than 20 is denoted as A)
12 | CCCN(C)C(=O)[C@@H]1CC(=O)N(C)[C@@H](CCOC)C(=O)N[C@@H]([C@@H](C)CC)C(=O)N(C)CC(=O)N(C)[C@H]2C/C=C\CCN(C2=O)[C@@H](Cc2ccc(C(F)(F)F)cc2)C(=O)N(C)CC(=O)N[C@@H](CCc2cc(F)c(C(F)(F)F)c(F)c2)C(=O)N2C[C@@H](C)C[C@H]2C(=O)NC2(CC(C)(C)C2)C(=O)N(C)[C@@H](C2CCCC2)C(=O)N1C [PP1974] | 0.18 | 50 | A (a compound having 10 or more and less than 20 is denoted as A) | A (a compound having 10 or more and less than 20 is denoted as A)
13 | CCO[C@@H]1C[C@H]2C(=O)NC3(CC(F)(F)C3)C(=O)N(C)[C@@H](C3CCCC3)C(=O)N(C)[C@H](C3CCC3)CC(=O)N(C)[C@@H](CC3CC3)C(=O)N[C@@H]([C@@H](C)CC)C(=O)N(C)CC(=O)N(C)[C@H]3C/C=C\CCN(C3=O)[C@@H](Cc3ccc(C(F)(F)F)cc3)C(=O)N(C)CC(=O)N[C@@H](CCc3cc(F)c(C(F)(F)F)c(F)c3)C(=O)N2C1 [PP1639] | 0.68 | 44.8 | A (a compound having 10 or more and less than 20 is denoted as A) | A (a compound having 10 or more and less than 20 is denoted as A)
